Assay results as given in patent US20160287568A1, “COMPOSITION OF A NON-NUCLEOSIDE REVERSE TRANSCRIPTASE INHIBITOR” (MERCK SHARP & DOHME CORP., priority 2013, published 2016).
Like-named read-outs stand apart in the source and are kept apart here.

Assays:
[1] = Storage of neat amorphous spray dried drug in open container, crystallization; format: physicochemical; conditions: neat amorphous drug generated by spray drying
Description: It is well understood that crystallization tendency varies dramatically across active pharmaceutical ingredients (Journal of Pharmaceutical Sciences, Vol. 99, No. 9, September 2010) and the rate of crystallization is a function of the thermodynamic driving force and the mobility of the system (Angell, C. A., Formation of Glasses from Liquids and Biopolymers. Science, 1995. 267(5206): p. 1924-1935. Mullin, J. W., Crystallization. 4th ed. 2001, Oxford: Reed Educational and Professional Publishing Ltd. Hoffman, J. D., Thermodynamic Driving Force in Nucleation and Growth Processes. Journal of Chemical Physics, 1958. 29(5): p. 1192-1193. Adam, G. and Gibbs, J. H., On Temperature Dependence of Cooperative Relaxation Properties in Glass-Forming Liquids. Journal of Chemical Physics, 1965. 43(1): p. 139-146. Ediger, M. D., Supercooled liquids and glasses. Journal of Physical Chemistry, 1996. 100(31): p. 13200-13212.). […] Neat amorphous drug generated by spray drying crystallizes within 2 weeks when stored in an open container at 5° C./ambient relative humidity (RH), 30° C./65% RH, 40° C./75% RH, and 60° C./ambient RH.

[2] = Pharmacokinetic profile in fasted beagle dogs; format: in vivo; conditions: dog, blood, po, 1 mg/kg; for Cmax / AUC(0-t): 3 fasted beagle dogs; for AUC(0-t): read-out: AUC0-24
Method: The API is Compound A, or a pharmaceutically acceptable salt thereof. Bioavailability is determined in vivo by dosing trial formulations and/or other formulations of the active pharmaceutical ingredient (API) to Beagle dogs at a dose of 1 mg/kg of the API and then measuring the amount of API in the serum or blood as a function of time. The spray dried particles from Spray Dry Process I were made into granules as follows. The particles were blended in a suitable blender (V or Bohle) with microcrystalline cellulose (diluent/compression aid), lactose (diluent/compression aid), croscarmellose sodium (a disintegrant), colloidal silicon dioxide (a glidant), and magnesium stearate (a lubricant). The blended powders were then roller compacted into granules, subjected to extragranular lubrication, and filled into capsules.

[3] = capsule of spray dried dispersion: 10% Compound A, 40% HPMCAS-LG
[4] = comparison capsule: 30% crystalline Compound A without polymer, 5% sodium lauryl sulfate

Work on Cn1c(Cn2ccc(C(F)(F)F)c(Oc3cc(Cl)cc(C#N)c3)c2=O)n[nH]c1=O [Compound A, 3-chloro-5-({1-[(4-methyl-5-oxo-4,5-dihydro-1H-1,2,4-triazol-3-yl)methyl]-2-oxo-4-(trifluoromethyl)-1,2-dihydropyridin-3-yl}oxy)benzonitrile] yielded a time to crystallization ([1]; 5° C./ambient RH) of at most 2 weeks, a time to crystallization ([1]; 30° C./65% RH) of at most 2 weeks and a time to crystallization ([1]; 40° C./75% RH) of at most 2 weeks. For the same compound, the time to crystallization ([1]; 60° C./ambient RH) was at most 2 weeks, the Tmax [2] was 4 h and the Cmax [2, 3] was 7.23 ± 0.99 µM. For the same compound, the AUC(0-t) [2, 3] was 137 ± 25.3 µM·h, the Cmax [2, 4] was 3.46 ± 1.59 µM and the AUC(0-t) [2, 4] was 52.4 ± 15.9 µM·h.
